Experimental data taken from patent US20230158057A1, “COMPOSITIONS AND METHODS FOR THE TREATMENT OF PAIN” (Duke University, priority 2020, published 2023).

Key:
tumor-bearing femora = assay: Microcomputed tomography of tumor-bearing femurs; assay type: in vivo, mouse
Method: Microcomputed tomography. Microcomputed tomography (MicroCT) analyses were performed on femurs from tumor inoculated mice or naïve mice using a VivaCT 80 scanner with the 55-kVp source (Scanco, Southeastern, Pa.) as previously described (Wang, C. et al. “NOTCH signaling in skeletal progenitors is critical for fracture repair.” The Journal of Clinical Investigation 126, 1471-1481 (2016); Cao, C. et al. “Increased Ca2+ signaling through CaV1.2 promotes bone formation and prevents estrogen deficiency-induced bone loss.” JCI Insight 2, (2017)). Quantification of microCT data was calculated for distal femurs of mice treated with vehicle or DMXAA. Parameters quantified included bone volume/total volume (BV/TV) and connectivity density (Conn.D) within a region of 100 slides and 200 slides proximal to the distal growth plate.

PINP = assay: Serum PINP ELISA; assay type: in vivo, mouse; settings: d17
Method: ELISA. Mouse high-sensitivity IFN-α ELISA kit (42115-1) and IFN-β ELISA kit (42410-1) were purchased from PBL Assay Science. Mouse CTX-I ELISA kit (AC-06F1) and mouse PINP ELISA kit (AC-33F1) were purchased from Immunodiagnostic Systems. ELISA was performed using culture medium, serum, and bone marrow lysates. Serum was obtained from whole blood that was collected from a submandibular vein via facial vein puncture, coagulated for 30 minutes at room temperature, followed by centrifugation (2,000 ×g for 10 min, 4° C.) and collection of the supernatant (serum). Bone marrow was homogenized in a lysis buffer containing protease inhibitors at 4° C. for 30 minutes. ELISA was conducted in accordance with the manufacturer's instructions. A standard curve was performed for each experiment.

LLC lung tumor nodules = assay: Lung metastases after intrafemoral LLC inoculation; assay type: in vivo, mouse; settings: d17, 20 mg/kg i.p., vs vehicle or ZA
Excerpt: Visual and immunohistochemical analysis of lung metastases. Mice were deeply anesthetized with isoflurane and perfused intracardially with PBS, followed by 4% PFA. After the perfusion, lungs were removed from mice and post-fixed in the same fixative overnight. The samples were then dehydrated with a 30% sucrose solution, embedded in O.C.T. (Tissue Tek), and cryosectioned to produce 8 μm thick sections. For Hematoxylin and Eosin (H & E) staining, lung sections were rehydrated and stained with 0.1% Hematoxylin and 0.5% Eosin in sequence. After dehydration and clearance with HistoClear (Electron

IFN-α = IFN-α ELISA on DRGs incubated ex vivo or cultured with ADU-S100; assay type: cell-based, mouse
Method: ELISA: Mouse high-sensitivity IFN-α ELISA kit (42115-1) and IFN-β ELISA kit (42410-1) were purchased from PBL Assay Science and performed on serum, DRG lysate, or cell culture medium according to the manufacturer's instructions. Serum was obtained from whole blood through cardiac puncture at the time of euthanasia, followed by incubation for 30 minutes at 35° C. to promote clotting. Subsequently, samples were centrifuged at 4° C. at 2,500 xg for 15 minutes, followed by careful isolation of serum (supernatant). For ELISA on cell culture medium, samples were first concentrated approximately 10-fold using Amicon centrifugal filters (Millipore Sigma, UFC8030). DRGs were lysed by mechanical homogenization in a pH 7.4 CHAPS lysis buffer (FivePhoton Biochemicals, CIB-1-7.4-60) supplemented with a protease inhibitor cocktail (Millipore Sigma, 11697498001) and phosphatase inhibitor cocktail (FivePhoton Biochemicals, PIC1). For DRG lysate, Pierce BCA (ThermoFisher, 23225) assays were performed according to the manufacturer's instructions to quantify protein concentration, and ELISA results are reported normalized to protein concentration (pg/mg DRG tissue). To measure IFN-β levels in cerebrospinal fluid (CSF) isolated by spinal catheter from NHPs, we utilized a cynomolgus IFN-β ELISA kit (PBL Assay Science, 46415-1), which was performed using 50 μl CSF according to the manufacturer's instructions. Standard curves were performed in all experiments and values interpolated using GraphPad Prism version.

Compound	cortical bone volume/total volume (BV/TV) (tumor-bearing femora; d11)	trabecular bone connectivity density (Conn.D) (tumor-bearing femora; d11)	trabecular bone loss and cortical bone lesions (3D reconstruction) (tumor-bearing femora; d11 after tumor implantation)	serum PINP levels (PINP)	lung tumor nodules (LLC lung tumor nodules)	IFN-α in culture medium (IFN-α; cultured DRGs from STING-WT mice)	increase in IFN-α in STING-KO and STING-cKO DRGs (IFN-α; ex vivo incubation)	IFN-α levels in DRG lysate (IFN-α; ex vivo incubation 30 μM, 2 h, WT mice)
Cc1ccc2c(=O)c3cccc(CC(=O)O)c3oc2c1C [DMXAA, 2-(5,6-dimethyl-9-oxo-9H-xanthen-4-yl)acetic acid]	increased cortical bone volume/total volume (BV/TV)	higher trabecular bone connectivity density (Conn.D)	less bone cancer-induced trabecular bone loss and fewer cortical bone lesions	had no effect on serum PINP levels	–	–	–	–
Nc1ncnc2c1ncn2[C@@H]1O[C@@H]2COP(=O)([S-])O[C@@H]3[C@H](O)[C@@H](COP([O-])(=S)O[C@H]2[C@H]1O)O[C@H]3n1cnc2c(N)ncnc21.[Na+].[Na+] (stereo partly drawn) [ADU-S100, (2′-5′)-[P(R)]-5′-O-[(R)-hydroxymercaptophosphinyl]-P-thioadenylyl-adenosine cyclic dinucleotide]	–	–	–	–	fewer lung tumor nodules	increased IFN-α and IFN-β in the culture medium	abolished in STING-KO mice and largely abolished in STING-cKO mice	IFN-α levels in DRG lysate were increased
